Assay results published in patent US12492193B2, “Pyrazole derivatives for the treatment of cystic fibrosis” (Fondazione Istituto Italiano Di Tecnologia, priority 2017, dated 2025).

Target: T1, mutant CFTR (Homo sapiens, UniProt P13569, DEL508-508)
T1 construct: expressed in transfected cells
Test: Fluorescence (HS-YFP) assay for CFTR activity, corrector assay
Type: cell-based
Conditions: CFBE41o- and FRT cells with stable expression of mutant CFTR, 24 h compound treatment
Method in brief: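 CFBE41o- or FRT cells stably expressing mutant CFTR and HS-YFP were exposed to compounds for 24 h (corrector mode), then stimulated 30 min at 37° C with forskolin (20 μM) plus genistein (50 μM). YFP quenching after 100 mM iodide injection; initial slope from exponential fit of final 10 s; EC50 reported.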

T1 sequence (P13569 with tags, fused parts or gaps DEL508-508): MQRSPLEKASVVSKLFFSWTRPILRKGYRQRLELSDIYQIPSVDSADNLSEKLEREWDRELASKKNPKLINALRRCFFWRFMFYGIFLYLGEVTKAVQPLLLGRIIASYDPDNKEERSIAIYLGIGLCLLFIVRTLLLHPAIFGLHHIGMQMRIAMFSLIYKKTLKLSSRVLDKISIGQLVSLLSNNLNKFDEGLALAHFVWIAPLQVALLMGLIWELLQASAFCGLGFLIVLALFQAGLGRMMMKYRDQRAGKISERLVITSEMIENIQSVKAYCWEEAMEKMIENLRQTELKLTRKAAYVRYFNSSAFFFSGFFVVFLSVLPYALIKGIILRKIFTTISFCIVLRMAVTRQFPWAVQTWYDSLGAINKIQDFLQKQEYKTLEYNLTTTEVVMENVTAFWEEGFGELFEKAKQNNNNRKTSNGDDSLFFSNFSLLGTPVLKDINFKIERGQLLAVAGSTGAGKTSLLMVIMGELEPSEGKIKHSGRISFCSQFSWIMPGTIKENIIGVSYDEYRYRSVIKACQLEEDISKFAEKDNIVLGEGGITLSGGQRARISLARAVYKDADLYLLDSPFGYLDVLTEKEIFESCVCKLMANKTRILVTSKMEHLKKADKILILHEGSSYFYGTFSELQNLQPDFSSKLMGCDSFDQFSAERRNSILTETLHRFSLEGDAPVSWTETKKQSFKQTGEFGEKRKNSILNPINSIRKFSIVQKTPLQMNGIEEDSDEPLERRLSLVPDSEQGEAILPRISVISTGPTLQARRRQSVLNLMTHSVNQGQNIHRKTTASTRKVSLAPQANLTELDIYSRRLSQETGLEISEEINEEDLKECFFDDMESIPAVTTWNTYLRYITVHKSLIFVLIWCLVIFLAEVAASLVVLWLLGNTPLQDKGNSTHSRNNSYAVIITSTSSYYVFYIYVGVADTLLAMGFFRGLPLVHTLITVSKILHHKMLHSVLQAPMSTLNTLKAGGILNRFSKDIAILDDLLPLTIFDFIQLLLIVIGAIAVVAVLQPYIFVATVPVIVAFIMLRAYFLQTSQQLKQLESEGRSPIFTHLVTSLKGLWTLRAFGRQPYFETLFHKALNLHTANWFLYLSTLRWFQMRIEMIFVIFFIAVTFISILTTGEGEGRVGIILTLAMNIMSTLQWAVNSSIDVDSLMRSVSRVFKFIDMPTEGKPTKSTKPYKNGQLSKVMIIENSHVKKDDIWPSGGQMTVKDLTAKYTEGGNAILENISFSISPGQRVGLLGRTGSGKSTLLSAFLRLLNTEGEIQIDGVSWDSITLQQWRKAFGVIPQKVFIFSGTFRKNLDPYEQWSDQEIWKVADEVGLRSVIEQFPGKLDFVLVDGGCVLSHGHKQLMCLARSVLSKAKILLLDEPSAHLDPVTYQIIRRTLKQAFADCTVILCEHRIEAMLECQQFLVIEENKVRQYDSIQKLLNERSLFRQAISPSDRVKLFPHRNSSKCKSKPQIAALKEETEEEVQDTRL

Row | Structure (SMILES) | EC50
1 | CN(C(=O)c1cccc(-n2nc(-c3cccnc3)cc2C(F)(F)F)c1)c1ccc2c(c1)OCO2 [compound 194, N-(1,3-Benzodioxol-5-yl)-N-methyl-3-[3-(3-pyridyl)-5-(trifluoromethyl)pyrazol-1-yl]benzamide] | 1000 to 2000 nM
2 | CN(C(=O)c1cccc(-n2nc(C(F)(F)F)c(Cl)c2COc2ccc(C(=O)OC(C)(C)C)cc2)c1)c1ccc2c(c1)OC(F)(F)O2 [compound 175, Tert-butyl 4-[[4-chloro-2-[3-[(2,2-difluoro-1,3-benzodioxol-5-yl)-methyl-carbamoyl]phenyl]-5-(trifluoromethyl)pyrazol-3-yl]methoxy]benzoate] | < 1000 nM
3 | Cc1nc2ccc(NC(=O)c3cccc(-n4nc(C)c(Cl)c4C)c3)cc2o1 [Int-045, 3-(4-Chloro-3,5-dimethyl-pyrazol-1-yl)-N-(2-methyl-1,3-benzoxazol-6-yl)benzamide] | > 2000 nM
4 | Cc1nc2ccc(N(C)C(=O)c3cccc(-n4nc(C(F)(F)F)cc4OCc4ccc(C(=O)OC(C)(C)C)cc4)c3)cc2o1 [compound 188, Tert-butyl 4-[[2-[3-[methyl-(2-methyl-1,3-benzoxazol-6-yl)carbamoyl]phenyl]-5-(trifluoromethyl)pyrazol-3-yl]oxymethyl]benzoate] | < 1000 nM
5 | CN(C(=O)c1cccc(-n2nc(C(F)(F)F)c(C#N)c2Oc2ccc(C(=O)O)cc2)c1)c1ccc2c(c1)OCO2 [compound 210, 4-[2-[3-[1,3-Benzodioxol-5-yl(methyl)carbamoyl]phenyl]-4-cyano-5-(trifluoromethyl)pyrazol-3-yl]oxybenzoic acid] | > 2000 nM
6 | CN(C(=O)c1cccc(-n2nc(C(F)(F)F)c(C=O)c2Oc2ccccc2)c1)c1ccc2c(c1)OCO2 [compound 180, N-(1,3-Benzodioxol-5-yl)-3-[4-formyl-5-phenoxy-3-(trifluoromethyl)pyrazol-1-yl]-N-methyl-benzamide] | < 1000 nM
7 | COC(=O)c1ccc(COc2c(Cl)c(C(F)(F)F)nn2-c2cccc(C(=O)N(C)c3cc4c(cc3Cl)OCO4)c2)cc1 [compound 156, Methyl 4-[[4-chloro-2-[3-[(6-chloro-1,3-benzodioxol-5-yl)-methyl-carbamoyl]phenyl]-5-(trifluoromethyl)pyrazol-3-yl]oxymethyl]benzoate] | < 1000 nM
8 | COc1ccc(NC(=O)c2cccc(-n3nc(C)c(Cl)c3C)c2)cc1OC [Int-013, 3-(4-Chloro-3,5-dimethyl-pyrazol-1-yl)-N-(3,4-dimethoxyphenyl)benzamide] | > 2000 nM
9 | Cc1c(Cl)c(C(F)(F)F)nn1-c1cccc(C(=O)Nc2ccc3c(c2C(=O)O)OCO3)c1 [compound 205, 5-[[3-[4-chloro-5-methyl-3-(trifluoromethyl)pyrazol-1-yl]benzoyl]amino]-1,3-benzodioxole-4-carboxylic acid] | > 2000 nM
10 | Cc1nc2ccc(N(C)C(=O)c3cccc(-n4nc(C(F)(F)F)c(Cl)c4COc4ccc(C(=O)O)cc4)c3)cn2n1 [compound 236, 4-[[4-Chloro-2-[3-[methyl-(2-methyl-[1,2,4]triazolo[1,5-a]pyridin-6-yl)carbamoyl]phenyl]-5-(trifluoromethyl)pyrazol-3-yl]methoxy]benzoic acid] | < 1000 nM
11 | Cc1nc2ccc(N(C)C(=O)c3cccc(-n4nc(C(F)(F)F)cc4OCc4ccc(C(=O)O)cc4)c3)cc2o1 [compound 195, 4-[[2-[3-[Methyl-(2-methyl-1,3-benzoxazol-6-yl)carbamoyl]phenyl]-5-(trifluoromethyl)pyrazol-3-yl]oxymethyl]benzoic acid] | < 1000 nM
12 | CN(C(=O)c1cccc(-n2nc(C(F)(F)F)cc2-c2ccco2)c1)c1ccc2c(c1)OCO2 [compound 147, N-(1,3-Benzodioxol-5-yl)-3-[5-(2-furyl)-3-(trifluoromethyl)pyrazol-1-yl]-N-methyl-benzamide] | < 1000 nM
13 | Cc1c(Cl)c(C(F)(F)F)nn1-c1cccc(C(=O)Nc2cc3c(cc2CO)OCO3)c1 [Int-167, 3-[4-chloro-5-methyl-3-(trifluoromethyl)pyrazol-1-yl]-N-[6-(hydroxymethyl)-1,3-benzodioxol-5-yl]benzamide] | < 1000 nM
14 | CN(C(=O)c1cccc(-n2nc(C(F)(F)F)c(Cl)c2CO)c1)c1ccc2c(c1)OC(F)(F)O2 [compound 217, 3-[4-Chloro-5-(hydroxymethyl)-3-(trifluoromethyl)pyrazol-1-yl]-N-(2,2-difluoro-1,3-benzodioxol-5-yl)-N-methyl-benzamide] | < 1000 nM
15 | CN(C(=O)c1cccc(-n2nc(C(F)(F)F)c(Cl)c2OCc2ccc(C(=O)OC(C)(C)C)cc2)c1)c1ccc2c(c1)OC(F)(F)O2 [compound 201, Tert-butyl 4-[[4-chloro-2-[3-[(2,2-difluoro-1,3-benzodioxol-5-yl)-methyl-carbamoyl]phenyl]-5-(trifluoromethyl)pyrazol-3-yl]oxymethyl]benzoate] | < 1000 nM
16 | CN(C(=O)c1cccc(-n2nc(C(F)(F)F)c(C#N)c2COc2ccc(C(=O)OC(C)(C)C)cc2)c1)c1ccc2c(c1)OC(F)(F)O2 [compound 259, Tert-butyl 4-[[4-cyano-2-[3-[(2,2-difluoro-1,3-benzodioxol-5-yl)-methyl-carbamoyl]phenyl]-5-(trifluoromethyl)pyrazol-3-yl]methoxy]benzoate] | < 1000 nM
17 | CN(C(=O)c1cccc(-n2nc(C(F)(F)F)c(Cl)c2CO[C@H]2CC[C@H](C(=O)O)CC2)c1)c1ccc2c(c1)OC(F)(F)O2 [compound 228, Trans-4-[[4-chloro-2-[3-[(2,2-difluoro-1,3-benzodioxol-5-yl)-methyl-carbamoyl]phenyl]-5-(trifluoromethyl)pyrazol-3-yl]methoxy]cyclohexanecarboxylic acid] | < 1000 nM
18 | CN(C(=O)c1cccc(-n2nc(C(F)(F)F)c(C#N)c2Oc2ccccc2)c1)c1ccc2c(c1)OCO2 [compound 185, N-(1,3-Benzodioxol-5-yl)-3-[4-cyano-5-phenoxy-3-(trifluoromethyl)pyrazol-1-yl]-N-methyl-benzamide] | < 1000 nM
19 | CCOC(=O)c1cc(C(F)(F)F)nn1-c1cccc(C(=O)N(C)c2ccc3c(c2)OCO3)c1 [compound 130, Ethyl 2-[3-[1,3-benzodioxol-5-yl(methyl)carbamoyl]phenyl]-5-(trifluoromethyl)pyrazole-3-carboxylate] | < 1000 nM

The next lines start with the values.

Row | EC50 | Structure (SMILES)
20 | 1000 to 2000 nM | Cc1cc2c(cc1N(C)C(=O)c1cccc(-n3nc(C)c(Cl)c3C)c1)OCO2 [compound 042, 3-(4-chloro-3,5-dimethyl-pyrazol-1-yl)-N-methyl-N-(6-methyl-1,3-benzodioxol-5-yl)benzamide]
21 | 1000 to 2000 nM | Cc1nn(-c2cccc(C(=O)N(C)c3ccc4c(c3)OCO4)c2)c(COc2cccc(C(=O)O)c2)c1Cl [compound 143, 3-[[2-[3-[1,3-Benzodioxol-5-yl(methyl)carbamoyl]phenyl]-4-chloro-5-methyl-pyrazol-3-yl]methoxy]benzoic acid]
22 | < 1000 nM | Cc1nn(-c2cccc(C(=O)N(C)c3cc4c(cc3Cl)OC(F)(F)O4)c2)c(C)c1Cl [compound 049, N-(6-Chloro-2,2-difluoro-1,3-benzodioxol-5-yl)-3-(4-chloro-3,5-dimethyl-pyrazol-1-yl)-N-methyl-benzamide]
23 | > 2000 nM | Cc1nn(-c2cccc(C(=O)N(C)c3ccc4c(c3)OCO4)c2)c([C@@H](C)O)c1Cl (racemic) [compound 114, N-(1,3-benzodioxol-5-yl)-3-[4-chloro-5-[(rac)-1-hydroxyethyl]-3-methyl-pyrazol-1-yl]-N-methyl-benzamide]
24 | > 2000 nM | Cc1nc2cc(N(C)C(=O)c3cccc(-n4nc(C)c(Cl)c4C)c3)ccc2o1 [compound 025, 3-(4-Chloro-3,5-dimethyl-pyrazol-1-yl)-N-methyl-N-(2-methyl-1,3-benzoxazol-5-yl)benzamide]
25 | < 1000 nM | CCOC(=O)c1cccc(OCc2c(Cl)c(C)nn2-c2cccc(C(=O)N(C)c3ccc4c(c3)OCO4)c2)c1 [compound 140, Ethyl 3-[[2-[3-[1,3-benzodioxol-5-yl(methyl)carbamoyl]phenyl]-4-chloro-5-methyl-pyrazol-3-yl]methoxy]benzoate]
26 | > 2000 nM | Cc1nn(-c2nccc(C(=O)N(C)c3ccc4c(c3)OCO4)n2)c(C)c1Cl [compound 072, N-(1,3-Benzodioxol-5-yl)-2-(4-chloro-3,5-dimethyl-pyrazol-1-yl)-N-methyl-pyrimidine-4-carboxamide]
27 | 1000 to 2000 nM | [2H]C([2H])([2H])N(C(=O)c1cccc(-n2nc(C)c(Cl)c2C)c1)c1ccc2c(c1)OC(F)(F)O2 [compound 039, 3-(4-Chloro-3,5-dimethyl-pyrazol-1-yl)-N-(2,2-difluoro-1,3-benzodioxol-5-yl)-N-(trideuteriomethyl) benzamide]
28 | > 2000 nM | Cc1nn(-c2cccc(C(=O)N(C)c3ccc4c(c3)OC(F)(F)C(F)(F)O4)c2)c(C)c1Cl [compound 008, 3-(4-Chloro-3,5-dimethyl-pyrazol-1-yl)-N-methyl-N-(2,2,3,3-tetrafluoro-1,4-benzodioxin-6-yl)benzamide]
29 | < 1000 nM | CCN(C(=O)c1cccc(-n2nc(C)c(Cl)c2C)c1)c1ccc2c(c1)OCCO2 [compound 004, 3-(4-Chloro-3,5-dimethyl-pyrazol-1-yl)-N-(2,3-dihydro-1,4-benzodioxin-6-yl)-N-ethyl-benzamide]
30 | 1000 to 2000 nM | CCN(C(=O)c1cccc(-n2nc(C)c(Cl)c2C)c1)c1ccc2c(c1)OC(F)(F)O2 [compound 019, 3-(4-Chloro-3,5-dimethyl-pyrazol-1-yl)-N-(2,2-difluoro-1,3-benzodioxol-5-yl)-N-ethyl-benzamide]
31 | > 2000 nM | CNC(=O)c1c(Cl)c(C)nn1-c1cccc(C(=O)N(C)c2ccc3c(c2)OCO3)c1 [compound 085, 2-[3-[1,3-benzodioxol-5-yl(methyl)carbamoyl]phenyl]-4-chloro-N,5-dimethyl-pyrazole-3-carboxamide]
32 | > 2000 nM | Cc1nn(-c2cccc(C(=O)Nc3ccc4c(c3)OCCN4)c2)c(C)c1Cl [Int-018, 3-(4-chloro-3,5-dimethyl-pyrazol-1-yl)-N-(3,4-dihydro-2H-1,4-benzoxazin-7-yl)benzamide]
